Data reported in US11795204B2 (Zealand Pharma A/S, priority 2012, dated 2023).
Square brackets hold non-standard residues; d marks the D form. Peptide text beside a SMILES is read from it. Dab = NCC[C@H](N)C(=O)O; Aib = CC(C)(N)C(=O)O

Tests used:
[1] = Chemical stability assessment (RP-HPLC normalized purity); type: physicochemical; conditions: for Normalized purity pH 4.0 after 14 days: 1 mg/ml in 50 mM acetate buffer pH 4.0, 40° C.; for Normalized purity pH 7.5 after 14 days: 1 mg/ml in 50 mM phosphate buffer pH 7.5, 40° C.
Procedure: Samples were placed in glass vials and incubated at 40° C. The samples were analysed by reverse-phase HPLC on a C18 column with gradient elution using an acetonitrile/trifluoroacetic acid/water eluent system. The area-percentage (area-%) of the main peak after incubation time T=t (relative to time T=0) was detected by UV spectrometry at 220 nm. The purity was first determined as follows: Purity(area-%)=(area of main peak/total area of all peaks)×100. […] Normalized purity values in Table 2 were determined after 14 days of incubation.

[2] = target: T1, human Glucagon-R (Homo sapiens, UniProt P47871); assay: Glucagon receptor assay (cAMP induction, AlphaScreen); type: cell-based; conditions: HEK293 cells expressing the human Glucagon-R, 15 min at 37° C., read-out: GCG-R EC50 in vitro
T1 construct: expressed in transfected cells
Procedure: The 5′-end primers additionally encoded a near-Kozak consensus sequence to ensure efficient translation. […] 48 hr after transfection, cells were seeded for limited dilution cloning and selected with 1 mg/ml G418 in the culture medium.
On the day of analysis, growth medium was removed and the cells were washed once with […] of the included Assay buffer with IBMX. Cells were incubated in […] Assay buffer/IBMX containing increasing concentrations of test peptides for 15 min at 37° C. Then the peptides/Assay buffer was removed and cells were lysed by addition of […] Lysis buffer pr. well and incubation for at least 10 min at room temperature. From each well […] cell lysate was transferred to a 384-well OptiPlate and mixed with Donor and Acceptor beads and incubated for 1 h at room temperature. The cAMP content was measured on an Envision plate reader.

[3] = physchem; conditions: pH 7.5
Procedure: A stock solution of the test peptide (2 mg/ml; determined by measurement of the absorption of the solution at 280 nm, and using the theoretical extension coefficient based on the content of tryptophan and tyrosine in the peptide) in demineralized water adjusted to pH 2.5 with HCl was prepared, and aliquots were diluted 1:1 in 100 mM acetate buffer (pH 4.0) and 100 mM phosphate buffer (pH 7.5), respectively, and loaded in a standard flat-bottom, non-sterile 96-well UV Microplate. The absorbance of samples (single samples, n=1) at 280 and 325 nm was measured in an absorbance-based plate reader, which was preheated to ambient temperature.

T1 sequence (P47871 26-477): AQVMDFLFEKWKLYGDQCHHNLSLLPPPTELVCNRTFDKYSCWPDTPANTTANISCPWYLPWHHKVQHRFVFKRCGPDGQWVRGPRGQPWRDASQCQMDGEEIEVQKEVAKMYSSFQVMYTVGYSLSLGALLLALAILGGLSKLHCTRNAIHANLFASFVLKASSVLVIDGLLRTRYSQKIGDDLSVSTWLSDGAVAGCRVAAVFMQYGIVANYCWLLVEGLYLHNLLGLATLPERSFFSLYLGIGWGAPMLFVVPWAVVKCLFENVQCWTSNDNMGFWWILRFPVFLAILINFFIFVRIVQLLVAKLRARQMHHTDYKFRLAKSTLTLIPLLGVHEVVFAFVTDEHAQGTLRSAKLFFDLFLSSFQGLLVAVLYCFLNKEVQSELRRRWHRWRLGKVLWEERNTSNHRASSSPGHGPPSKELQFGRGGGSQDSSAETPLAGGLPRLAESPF

Compound | Normalized purity pH 4.0 after 14 days [1] [%] | Normalized purity pH 7.5 after 14 days [1] [%] | EC50 [2] [nM] | solubility [3] [µg/mL]
CNC(=O)CC[C@H](NC(=O)[C@H](CO)NC(=O)[C@@H](N)Cc1c[nH]cn1)C(=O)NCC(=O)N[C@H](C(=O)N[C@@H](Cc1ccccc1)C(=O)N[C@H](C(=O)N[C@@H](CO)C(=O)N[C@@H](CC(=O)O)C(=O)N[C@@H](Cc1ccc(O)cc1)C(=O)N[C@@H](CO)C(=O)N[C@@H](CCCCN)C(=O)N[C@@H](Cc1ccc(O)cc1)C(=O)N[C@@H](CC(C)C)C(=O)N[C@@H](CC(=O)O)C(=O)NC(C)(C)C(=O)N[C@@H](C)C(=O)N[C@@H](CCCNC(=N)N)C(=O)N[C@@H](C)C(=O)N[C@@H](CCC(=O)O)C(=O)N[C@@H](CO)C(=O)N[C@@H](Cc1ccccc1)C(=O)N[C@H](C(=O)N[C@@H](CCCCN)C(=O)N[C@@H](Cc1c[nH]c2ccccc12)C(=O)N[C@@H](CC(C)C)C(=O)N[C@@H](CCC(=O)O)C(=O)N[C@@H](CO)C(=O)N[C@H](C(=O)O)[C@@H](C)O)C(C)C)[C@@H](C)O)[C@@H](C)O [Compound 26] (H-HSE(NHMe)GTFTSDYSKYLD[Aib]ARAESFVKWLEST-OH) | 90 | 93.9 | 0.0069 | ≥ 1000
CC(C)C[C@H](NC(=O)[C@H](Cc1c[nH]c2ccccc12)NC(=O)[C@H](CCC(=O)O)NC(=O)[C@@H](NC(=O)[C@H](Cc1ccccc1)NC(=O)[C@H](CO)NC(=O)[C@H](CCCCN)NC(=O)[C@H](C)NC(=O)[C@H](CCCNC(=N)N)NC(=O)[C@H](C)NC(=O)C(C)(C)NC(=O)[C@H](CC(=O)O)NC(=O)[C@H](CC(C)C)NC(=O)[C@H](Cc1ccc(O)cc1)NC(=O)[C@H](CCCCN)NC(=O)[C@H](CO)NC(=O)[C@H](Cc1ccc(O)cc1)NC(=O)[C@H](CC(=O)O)NC(=O)[C@H](CO)NC(=O)[C@@H](NC(=O)[C@H](Cc1ccccc1)NC(=O)[C@@H](NC(=O)CNC(=O)[C@H](CCC(N)=O)NC(=O)[C@H](CO)NC(=O)[C@@H](N)Cc1c[nH]cn1)[C@@H](C)O)[C@@H](C)O)C(C)C)C(=O)N[C@@H](CCC(=O)O)C(=O)N[C@@H](CCCCN)C(=O)N[C@H](C(=O)O)[C@@H](C)O [Compound 29] (H-HSQGTFTSDYSKYLD[Aib]ARAKSFVEWLEKT-OH) | 91 | 91.6 | 0.023 | ≥ 1000
CC(C)C[C@H](NC(=O)[C@H](Cc1c[nH]c2ccccc12)NC(=O)[C@H](CCCCN)NC(=O)[C@@H](NC(=O)[C@H](Cc1ccccc1)NC(=O)[C@H](CO)NC(=O)[C@H](CCC(=O)O)NC(=O)[C@H](C)NC(=O)[C@H](CCCNC(=N)N)NC(=O)[C@H](C)NC(=O)C(C)(C)NC(=O)[C@H](CC(=O)O)NC(=O)[C@H](CC(C)C)NC(=O)[C@H](Cc1ccc(O)cc1)NC(=O)[C@H](CCCCN)NC(=O)[C@H](CO)NC(=O)[C@H](Cc1ccc(O)cc1)NC(=O)[C@H](CC(=O)O)NC(=O)[C@H](CO)NC(=O)[C@@H](NC(=O)[C@H](Cc1ccccc1)NC(=O)[C@@H](NC(=O)CNC(=O)[C@H](CCC(N)=O)NC(=O)[C@H](CO)NC(=O)[C@@H](N)Cc1c[nH]cn1)[C@@H](C)O)[C@@H](C)O)C(C)C)C(=O)N[C@@H](CCC(=O)O)C(=O)N[C@@H](CO)C(=O)N[C@@H](C)C(=O)O [Compound 30] (H-HSQGTFTSDYSKYLD[Aib]ARAESFVKWLESA-OH) | 88.6 | 91.4 | 0.016 | ≥ 1000
CC(C)C[C@H](NC(=O)[C@H](Cc1c[nH]c2ccccc12)NC(=O)[C@H](CCCCN)NC(=O)[C@@H](NC(=O)[C@H](Cc1ccccc1)NC(=O)[C@H](CO)NC(=O)[C@H](CCC(=O)O)NC(=O)[C@H](C)NC(=O)[C@H](CCCNC(=N)N)NC(=O)[C@H](C)NC(=O)C(C)(C)NC(=O)[C@H](CC(=O)O)NC(=O)[C@H](CC(C)C)NC(=O)[C@H](Cc1ccc(O)cc1)NC(=O)[C@H](CCCCN)NC(=O)[C@H](CO)NC(=O)[C@H](Cc1ccc(O)cc1)NC(=O)[C@H](CC(=O)O)NC(=O)[C@H](CO)NC(=O)[C@@H](NC(=O)[C@H](Cc1ccccc1)NC(=O)[C@@H](NC(=O)CNC(=O)[C@H](CCC(N)=O)NC(=O)[C@H](CO)NC(=O)[C@@H](N)Cc1c[nH]cn1)[C@@H](C)O)[C@@H](C)O)C(C)C)C(=O)N[C@@H](CCC(=O)O)C(=O)N[C@@H](CO)C(=O)N[C@H](C(N)=O)[C@@H](C)O [Compound 31] (H-HSQGTFTSDYSKYLD[Aib]ARAESFVKWLEST-NH2) | 93.1 | 91.7 | 0.0072 | ≥ 1000
CC(=O)NCC[C@H](NC(=O)[C@H](CO)NC(=O)[C@@H](N)Cc1c[nH]cn1)C(=O)NCC(=O)N[C@H](C(=O)N[C@@H](Cc1ccccc1)C(=O)N[C@H](C(=O)N[C@@H](CO)C(=O)N[C@@H](CC(=O)O)C(=O)N[C@@H](Cc1ccc(O)cc1)C(=O)N[C@@H](CO)C(=O)N[C@@H](CCCCN)C(=O)N[C@@H](Cc1ccc(O)cc1)C(=O)N[C@@H](CC(C)C)C(=O)N[C@@H](CC(=O)O)C(=O)NC(C)(C)C(=O)N[C@@H](C)C(=O)N[C@@H](CCCNC(=N)N)C(=O)N[C@@H](C)C(=O)N[C@@H](CCC(=O)O)C(=O)N[C@@H](CO)C(=O)N[C@@H](Cc1ccccc1)C(=O)N[C@H](C(=O)N[C@@H](CCCCN)C(=O)N[C@@H](Cc1c[nH]c2ccccc12)C(=O)N[C@@H](CC(C)C)C(=O)N[C@@H](CCC(=O)O)C(=O)N[C@@H](CO)C(=O)N[C@H](C(=O)O)[C@@H](C)O)C(C)C)[C@@H](C)O)[C@@H](C)O [Compound 32] (H-HS[Dab](Ac)GTFTSDYSKYLD[Aib]ARAESFVKWLEST-OH) | 91.2 | 96.3 | 0.0093 | ≥ 1000
H-HSQGTFTSDLSKYLDSARAEDFVKWLEST-OH [Compound 11] | 78.6 | 89.9 | 0.11 | ≥ 1000
H-HSQGTFTSDYSKYLDEARAEDFVKWLEST-OH [Compound 14] | 89.5 | 92.4 | 0.15 | ≥ 1000
H-HSQGTFTSDYSKYLDEARAKDFVEWLEKT-OH [Compound 5] | 91.8 | 89.6 | 0.17 | ≥ 1000
H-HSQGTFTSDYSKYLDKARAEDFVKWLEST-OH [Compound 3] | 85.0 | 86.5 | 0.03 | ≥ 1000
H-HSQGTFTSDYSKYLDLARAEDFVKWLEST-OH [Compound 17] | 89.9 | 88.3 | 0.029 | ≥ 1000
H-HSQGTFTSDYSKYLDSARAEDFVAWLEST-OH [Compound 4] | 80.5 | 84.6 | 0.34 | ≥ 1000
H-HSQGTFTSDYSKYLDSARAEDFVKWLEET-OH [Compound 2] | 83.5 | 86.2 | 0.18 | ≥ 1000
H-HSQGTFTSDYSKYLDSARAEDFVKWLES-OH [Compound 13] | 84.6 | 88.8 | 0.07 | ≥ 1000
H-HSQGTFTSDYSKYLESARAESFVKWLEST-OH [Compound 16] | 89.1 |  | 0.39 | ≥ 1000
